Source: patent US8207204B2, “Triazole derivatives as SCD inhibitors” (GlaxoSmithKline LLC, priority 2007, dated 2012)

melting point [°C] | SMILES
192.2 | Cc1nnc(NC(=O)c2nnn(Cc3ccc(Cl)c(Cl)c3)c2C)o1 [Example 6, 1-[(3,4-Dichlorophenyl)methyl]-5-methyl-N-(5-methyl-1,3,4-oxadiazol-2-yl)-1H-1,2,3-triazole-4-carboxamide]
170.5 | Cc1c(C(=O)Nc2ncc(CO)s2)nnn1Cc1ccc(Cl)c(Cl)c1 [Example 39, 1-[(3,4-Dichlorophenyl)methyl]-N-[5-(hydroxymethyl)-1,3-thiazol-2-yl]-5-methyl-1H-1,2,3-triazole-4-carboxamide]
216.9 | Cc1nc(NC(=O)c2nnn(Cc3ccc(Cl)c(Cl)c3)c2C)sc1C(=O)N1CCN(C)CC1 [Example 25, 1-[(3,4-Dichlorophenyl)methyl]-5-methyl-N-{4-methyl-5-[(4-methyl-1-piperazinyl)carbonyl]-1,3-thiazo1-2-yl}-1H-1,2,3-triazole-4-carboxamide]
158 | COC(=O)Cc1csc(NC(=O)c2nnn(Cc3ccc(Cl)c(Cl)c3)c2C)n1 [Example 8, Methyl {2-[({1-[(3,4-dichlorophenyl)methyl]-5-methyl-1H-1,2,3-triazol-4-yl}carbonyl)amino]-1,3-thiazol-4-yl}acetate]
225 | COc1ccc2nc(NC(=O)c3nnn(Cc4ccc(Cl)c(Cl)c4)c3C)sc2c1
194.1 | CCNC(=O)c1sc(NC(=O)c2nnn(Cc3ccc(Cl)c(Cl)c3)c2C)nc1C [Example 21, 1-[(3,4-Dichlorophenyl)methyl]-N-{5-[(ethylamino)carbonyl]-4-methyl-1,3-thiazol-2-yl}-5-methyl-1H-1,2,3-triazole-4-carboxamide]
121 | Cc1nc(NC(=O)c2nnn(Cc3ccc(Cl)c(Cl)c3)c2C)sc1C(=O)NCCN(C)C.Cl
283 | Cc1nc(NC(=O)c2cn(Cc3ccc(Cl)c(Cl)c3)nn2)sc1C(N)=O [Example 37, N-[5-(Aminocarbonyl)-4-methyl-1,3-thiazol-2-yl]-1-[(3,4-dichlorophenyl)methyl]-1H-1,2,3-triazole-4-carboxamide]
260.4 | Cc1c(C(=O)Nc2ncc(C(=O)NCCO)s2)nnn1Cc1ccc(Cl)c(Cl)c1 [Example 31, 1-[(3,4-Dichlorophenyl)methyl]-N-(5-{[(2-hydroxyethyl)-amino]carbonyl}-1,3-thiazol-2-yl)-5-methyl-1H-1,2,3-triazole-4-carboxamide]
